Drawing on PubChem BioAssay AID179 (DTP/NCI, 2004), this text covers EC50, IC50 and outcome for 75 molecules.

For this test, the system named is CEM cells HIV-1 protection, formazan growth assay. The test can be described thus: NCI AIDS Antiviral Assay. To be noted: for IC50: measured here: growth of uninfected CEM cells. An outline of the steps:
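Soluble formazan readout of cell growth; CEM cells ± HIV-1; 5 drug concs. ≥50% protection → retest; ≥50% again = moderately active; reproducible 100% = confirmed active.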

Several values for one entry are separate records, joined by “and”; a condition that tells them apart may be missing. Equal values may be shown once. Activity calls are given as the source filed them.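 Rule for the calls: active = compounds giving half or more protection of infected cells from virus-caused growth loss, again on retest; inactive = the rest.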 Where only a bound is given, the exact number is not on record here.

The term EC50 denotes the concentration at which the effect is half-maximal. By IC50 is commonly meant the concentration that inhibits the measured activity by half. A low value points to greater potency in that assay. `COc1cc(/C=C2\Cc3ccccc3C2=O)cc(OC)c1OC`: the EC50 is more than 23.4 µM and the 50% inhibitory concentration (IC50) is more than 23.4 µM.

With `O=c1[nH]oc2ccccc12`, the EC50 was more than 200 µM and the IC50 was more than 200 µM.

For the molecule `CC(=O)Nc1nc(N)nc(NC(C)=O)c1N=O`, the EC50 is more than 200 µM and the IC50 came to 30.9 µM.

Consider `COC(=O)C1C(=O)C(C(=O)OC)C2C(C(=O)OC)C(=O)C(C(=O)OC)C12` (configuration not stated), for which the EC50 is 166 µM and the IC50 was 355 µM.

Turning to `Cc1cn(C2OCC(CO)C2O)c(=O)[nH]c1=O` (configuration not stated), the EC50 was more than 200 µM and the IC50 was more than 200 µM.

For the molecule `[O-][n+]1ccccc1SSc1cccc[n+]1[O-]`, the EC50 is more than 2 µM and the IC50 came to 0.141 µM.

For `CC1=C(/C=C/C(C)=C/C=C(C(=O)O)\C(C)=C\C(=O)O)C(C)(C)CCC1`, the EC50 is more than 200 µM and the IC50 was more than 200 µM.

For the molecule `N#C/C(=C\c1ccc(Cl)cc1)c1ccc(C(=O)O)cc1`, the EC50 is more than 200 µM and the half-maximal inhibitory concentration (IC50) was determined as 110 µM.

For the molecule `CC(C)(C)NC(=O)Nc1ccccn1`, the EC50 is more than 200 µM and the IC50 is more than 200 µM.

For the molecule `O=C(O)/C=N\Nc1nc2ccccc2[nH]1`, the EC50 is more than 200 µM and the IC50 was more than 200 µM.

Take `CCOc1ccccc1NC(=O)CC(C(=O)OC)C(=O)C(=O)OC` (configuration not stated): the EC50 is more than 537 µM and the IC50 is more than 537 µM.

As for `CCOC1Oc2ccccc2-c2nc(C)c(C#N)cc21` (configuration not stated), the EC50 was more than 83.2 µM and the IC50 was more than 83.2 µM.

In the case of `C=CCCC(=O)C(Cc1ccccc1OC)C(=O)OC` (configuration not stated), the EC50 is more than 129 µM and the IC50 is more than 129 µM.

On to `O=Cc1cc2c(cc1-c1c(C=O)ccc3c1OCO3)OCO2`, for which the EC50 was more than 63.1 µM and the IC50 turned out to be 33.1 µM.

For the molecule `CC(Oc1ccc(OCC2CCCCC2)cc1)C(N)=O` (configuration not stated), the EC50 was more than 36.3 µM and the IC50 stood at 15.1 µM.

For the molecule `Nn1c(CCCCCCCCc2nnc(COc3ccc(Cl)cc3Cl)n2N)nnc1COc1ccc(Cl)cc1Cl`, the EC50 was more than 200 µM and the IC50 was found to be 42.7 µM.

As to `O=S1(=O)OCCCCO1`, the EC50 was more than 1620 µM and the IC50 was more than 1620 µM.

Take `C/C(=N\NC(N)=S)c1cn(C2OC(CO)C(O)C2O)c(=O)[nH]c1=O` (configuration not stated): the outcome was inactive.

Turning to `CC(=O)OC12/C(=N/O)CCCCCC1c1ccccc12` (configuration not stated), the EC50 was more than 200 µM and the IC50 was more than 200 µM.

`Cc1ccc(C(=O)c2ccccc2C(=O)O)c(C)c1`: the EC50 was more than 200 µM and the IC50 is more than 200 µM.

In the case of `CC1=CC(O)(c2ccc(-c3ccccc3Cl)cc2)OC1=O` (configuration not stated), the result was inactive.

With `COc1cc(C2C(Cl)C(=O)N2NC(=O)c2ccc(NC(C)=O)cc2)cc(Br)c1O` (configuration not stated), the EC50 was more than 200 µM and the IC50 is 162 µM.

For `CN(C)CCO/N=C1/C=C2CC[C@H]3[C@@H]4CC[C@H](O)[C@@]4(C)CC[C@@H]3[C@@]2(C)CC1`, the EC50 is more than 200 µM and the IC50 came to 6.03 µM.

Regarding `O=C(c1ccco1)n1c2ccc(Br)cc2c2nc3ccccc3nc21`, the EC50 was more than 50.1 µM and the IC50 turned out to be 22.4 µM.

For the molecule `O=C(NN(C(=O)c1ccc([N+](=O)[O-])cc1)c1ccccc1)c1ccc([N+](=O)[O-])cc1`, the EC50 is more than 200 µM and the IC50 was determined as 36.3 µM.

Turning to `Cc1c(C)c2c(c(N)c1C#N)C(=O)N(NC(=S)Nc1ccccc1)C2=O`, the EC50 was more than 200 µM and the 50% inhibitory concentration (IC50) is 158 µM.

Consider `C=C(C(=C)N1N=NC2C3CCC(C3)C21)N1N=NC2C3CCC(C3)C21` (configuration not stated), for which the EC50 was more than 2.34 µM and the IC50 was more than 2.34 µM.

For the molecule `Nc1nnc(Sc2ccc([N+](=O)[O-])cc2)s1`, the EC50 is more than 195 µM and the IC50 was determined as 11.7 µM.

Consider `O=C(CC1=Nc2nnc(-c3nnc4n3C(=O)C(CC(=O)C3CC3)=N4)n2C1=O)C1CC1`, for which the EC50 was more than 24.5 µM and the IC50 was more than 24.5 µM.

Consider `Cc1ccccc1NC(=O)O/N=C(\Cl)C(C)C`, for which the EC50 is more than 20 µM and the IC50 worked out at 3.16 µM.

As to `CCN(CC)C(=S)SS(=O)(=O)c1ccc([N+](=O)[O-])cc1`, the EC50 is more than 200 µM and the IC50 turned out to be 19.1 µM.

In the case of `COC1OC(OC)C2C(c3c(C)cc(C)cc3C)=NOC12` (configuration not stated), the EC50 is more than 234 µM and the IC50 is more than 234 µM.

For `O=C1OC(c2ccccc2)(c2ccccc2)C(=O)OC1(c1ccccc1)c1ccccc1`, the EC50 was more than 200 µM and the IC50 worked out at 148 µM.

Take `Cc1[nH]c2ccccc2c1C1=CC(=O)N(c2ccccc2)C1=O`: the EC50 was more than 200 µM and the IC50 worked out at 8.71 µM.

On to `CC(C)(CCCCC(C)(C)C1NC(=O)N1)C1NC(=O)N1`, for which the EC50 is more than 200 µM and the IC50 was more than 200 µM.

As for `CC1OS(=O)(=O)CS(=O)(=O)OC1C` (configuration not stated), the EC50 was more than 1070 µM and the IC50 was found to be 1020 µM.

In the case of `COc1ccc2c(C)cc(N/N=C/c3ccc(C)s3)nc2c1`, the EC50 was more than 200 µM and the IC50 amounted to 9.12 µM.

As to `CN(C)CCOC1(Cc2ccc(Cl)cc2Cl)CCC(C(C)(C)C)CC1` (configuration not stated), the EC50 is more than 200 µM; the IC50 was 2.14 µM and 3.72 µM.

For the molecule `C=Cc1cc[n+](CCCCCCCCCCCC)cc1`, the EC50 is more than 174 µM and the IC50 was found to be 102 µM.

With `COC(=O)c1ncn(Cc2ccccc2)c1N`, the EC50 was more than 200 µM and the IC50 was more than 100 µM.

Regarding `CCOC(=O)C1=C(Nc2ccc(Cl)cc2Cl)OCC1=O`, the result was inactive.

`CC(=O)NCS(=O)(=O)O`: the EC50 was more than 200 µM and the IC50 is more than 200 µM.

Turning to `Cc1ccc(S(=O)(=O)N2CCCSCCSCCCSCC2)cc1`, the EC50 was more than 17.8 µM and the IC50 is more than 17.8 µM.

`COc1ccc(C(c2ccc3cccnc3c2O)c2ccc3cccnc3c2O)cc1`: the outcome was inactive.

Molecule `O=c1[nH]c(=O)n(C2C=CC(CO)O2)cc1COCC(F)(F)F` (configuration not stated) returned an EC50 of 3.02 µM and an IC50 of 105 µM.

`O=[N+]([O-])c1c(Cl)ccc2nsnc12`: the EC50 is more than 316 µM and the IC50 worked out at 2.04 µM.

Take `CCCCOC(=Nc1ccccc1)N(c1ccccc1)c1ccccc1`: the EC50 is more than 200 µM and the IC50 came to 36.3 µM.

With `Cc1ccc(S(=O)(=O)Sc2ccccc2)cc1`, the EC50 was more than 135 µM and the IC50 was found to be 21.9 µM.

For the molecule `O=C(/C=C/c1ccc(Cl)c(Cl)c1)Oc1ccc(/C=C2\CCCCC2=O)cc1`, the EC50 is more than 100 µM and the IC50 came out at 5.25 µM.

Regarding `CN1CCN(CCn2c3c4ccccc4ccc3c3oc(=O)c4ccccc4c32)CC1`, the EC50 is more than 100 µM and the IC50 came out at 3.02 µM.

In the case of `CC(=O)[C@@]12OC(C)(c3ccco3)O[C@@H]1C[C@H]1[C@@H]3CCC4=CC(=O)CC[C@]4(C)[C@H]3CC[C@@]12C` (some centres not stated), the EC50 was more than 200 µM and the IC50 amounted to 158 µM.

Consider `Clc1ccc(C2c3ccccc3-c3nc4ccccc4n32)cc1` (configuration not stated), for which the EC50 is more than 200 µM and the IC50 was more than 200 µM.

For the molecule `O=C1C=CC(=O)N1Nc1ccc([N+](=O)[O-])cc1[N+](=O)[O-]`, the EC50 is more than 200 µM and the IC50 amounted to 110 µM.

Consider `Cc1cc(=O)n2c(cc3cccccc32)n1`, for which the result was inactive.

Turning to `CCOC(=O)/C(=N/Nc1ccc(Cl)cc1)N1C(=S)C=C(C)NN(C)C1=S`, the EC50 was more than 200 µM and the IC50 is more than 200 µM.

In the case of `Nc1nc(N)c2c(-c3ccccc3)ccnc2n1`, the EC50 was more than 195 µM and the IC50 worked out at 162 µM.

Consider `O=C(CC(=O)c1ccc([N+](=O)[O-])cc1)C(=O)Nc1nccs1`, for which the EC50 was more than 186 µM and the IC50 was 155 µM.

As for `O=C(CC1=Nc2nnc(-c3nnc4n3C(=O)C(CC(=O)c3cccnc3)=N4)n2C1=O)c1cccnc1`, the EC50 was more than 15.1 µM and the IC50 was more than 15.1 µM.

Regarding `CCOC(=O)c1cc(C2CCN(CC(C)CC)C2=S)c(-c2cc(C)no2)[nH]1` (configuration not stated), the EC50 was more than 200 µM and the IC50 was more than 200 µM.

Consider `CCOC(C)=Nc1cc(OC)cc2c1NC(=O)CCS2`, for which the EC50 was more than 200 µM and the IC50 was more than 200 µM.

Regarding `CC1(C)N=C(/C(Cl)=[N+](/[O-])C(=O)c2ccc(F)cc2)C(C)(C)N1O`, the EC50 is more than 200 µM and the IC50 is 51.3 µM.

`O=C(Nc1ccc(C2=NCCN2)cc1)Nc1cc(NC(=O)Nc2ccc(C3=NCCN3)cc2)cc(C(=O)O)c1`: the EC50 is 38.9 µM and the IC50 is more than 200 µM.

Take `CCCCCCCCCCC/C=C(/C(=O)CCCO[Si](C)(C)C(C)(C)C)C(=O)OC`: the EC50 was more than 200 µM and the IC50 is more than 200 µM.

`O=C(CNc1ccc([N+](=O)[O-])cc1)Nn1c(-c2ccccc2)nc2ccccc2c1=O`: the EC50 was more than 200 µM and the IC50 stood at 4.17 µM.

For the molecule `CC(=O)Oc1ccccc1-c1cc2ccccc2oc1=O`, the EC50 was more than 200 µM and the IC50 was more than 100 µM.

On to `Cc1cc[n+](C2=C([O-])C3=C(C(=O)C2=O)C2c4ccccc4C3c3ccccc32)c(C)c1`, for which the EC50 is more than 33.9 µM and the IC50 worked out at 31.6 µM.

With `CN=Cc1ccccc1O.CN=Cc1ccccc1O.[Cu+2]`, the EC50 was more than 200 µM and the IC50 stood at 11.2 µM.

As for `COC(C(=O)[O][Ge]([CH3])([CH3])[CH3])c1ccccc1` (configuration not stated), the EC50 is more than 251 µM and the IC50 was more than 251 µM.

As to `CN=C(N)N=Nc1c(O)[nH]c2ccccc12`, the EC50 was more than 200 µM and the half-maximal inhibitory concentration (IC50) is more than 200 µM.

For the molecule `O=C(O)[C@@H]1CSCN1C(=O)[C@@H]1CCC(=S)N1`, the EC50 is more than 200 µM and the IC50 is more than 200 µM.

On to `O=[N+]([O-])c1cccc(C2=NOC3CCCC23)c1` (configuration not stated), for which the outcome was inactive.

For `C[PH+](C)CC[PH+](C)CC[PH+](C)C.[C-]#[O+].[C-]#[O+].[C-]#[O+].[Cr]`, the EC50 is more than 2.88 µM and the IC50 was more than 2.88 µM.

`CCOC(=O)C1CCn2c(nc3c(=O)n(C)c(=O)n(C)c32)S1` (configuration not stated): the outcome was inactive.

Regarding `COc1ccc(/C=N/Nc2nnc3c(n2)[nH]c2ccc(Br)cc23)cc1`, the EC50 is more than 200 µM and the IC50 is more than 200 µM.

On to `N/N=C1\C(=O)N(C2CCCCC2)C(=O)C1C(=O)NC1CCCCC1` (configuration not stated), for which the result was inactive.
